For orientation: melting point means the temperature of the solid-liquid transition. In turn, `O=C1NN=C(c2cnccn2)C1=Cc1cc(CN2CCC(Cc3ccccc3)CC2)c[nH]1` [Example 180, 4-{[4-(4-Benzylpiperidino)methylpyrrol-2-yl]methylene}-3-pyrazinyl-2-pyrazolin-5-one] came in with a melting point of 211 to 214 °C.

Take `Cc1[nH]c(C=C2C(=O)NN=C2c2cnccn2)c(C)c1CCO` [Example 181, 4-{[3,5-Dimethyl-4-(2-hydroxyethyl)pyrrol-2-yl]methylene}-3-pyrazinyl-2-pyrazolin-5-one]: the melting point fell in the range of 306 to 308 °C.

`Cc1[nH]c(C=C2C(=O)NN=C2C2CC2)c(C)c1CCO` [Example 184, 3-Cyclopropyl-4-{[3,5-Dimethyl-4-(2-hydroxyethyl)pyrrol-2-yl]methylene}-2-pyrazolin-5-one] returned a melting point of 244 to 246 °C.

As for `CCNCCc1c(C)[nH]c(C=C2C(=O)NN=C2c2cnccn2)c1C` [Example 185, 4-{[3,5-Dimethyl-4-(2-ethylaminoethyl)pyrrol-2-yl]methylene}-3-pyrazinyl-2-pyrazolin-5-one], the melting point fell in the range of 192 to 194 °C.

For the molecule `CCN(CC)CCCc1c(C)[nH]c(C=C2C(=O)NN=C2c2cnccn2)c1C` [Example 186, 4-{[4-(3-Diethylaminopropyl)-3,5-dimethylpyrrol-2-yl]methylene}-3-pyrazinyl-2-pyrazolin-5-one], the melting point was 208.1 °C.

`Cc1[nH]c(C=C2C(=O)NN=C2c2cnccn2)c(C)c1CCCO` [Example 187, 4-{[3,5-Dimethyl-4-(3-hydroxypropyl)pyrrol-2-yl]methylene}-3-pyrazinyl-2-pyrazolin-5-one]: the melting point lay within 273 to 275 °C.

The molecule `CCOC1=NNC(=O)C1=Cc1[nH]c(C)c(C(=O)CN(C)C)c1C` [Example 189, 4-[(3,5-Dimethyl-4-dimethylaminoacetylpyrrol-2-yl)methylene]-3-ethoxy-2-pyrazolin-5-one] came in with a melting point of 198 °C.

`Cc1[nH]c(C=C2C(=O)NN=C2c2cnccn2)c(C)c1CCN(C)C` [Example 191, 4-{[3,5-Dimethyl-4-(2-dimethylaminoethyl)pyrrol-2-yl]methylene}-3-pyrazinyl-2-pyrazolin-5-one] came in with a melting point of 216 °C.

Molecule `Cc1[nH]c(C=C2C(=O)NN=C2c2cnccn2)c(C)c1CCCCO` [Example 192, 4-{[3,5-Dimethyl-4-(4-hydroxybutyl)pyrrol-2-yl]methylene}-3-pyrazinyl-2-pyrazolin-5-one] gave a melting point of 222 °C.

In turn, `CCN(CC)CCCCc1c(C)[nH]c(C=C2C(=O)NN=C2c2cnccn2)c1C` [Example 193, 4-{[4-(4-Diethylaminobutyl)-3,5-dimethylpyrrol-2-yl]methylene}-3-pyrazinyl-2-pyrazolin-5-one] gave a melting point of 184 °C.

For `CCN(CC)CC(=O)c1c(C)[nH]c(C=C2C(=O)NN=C2c2cnccn2)c1C` [Example 196, 4-[(4-Diethylaminoacetyl-3,5-dimethylpyrrol-2-yl)methylene]-3-pyrazinyl-2-pyrazolin-5-one], the melting point came out at 199 °C.

Turning to `Cc1cc(C(C)C)c(C=C2C(=O)NN=C2c2cnccn2)[nH]1` [Example 197, 4-[(3-Isopropyl-5-methylpyrrol-2-yl)methylene]-3-pyrazinyl-2-pyrazolin-5-one], the melting point is 244 °C.

`Cc1[nH]c(C=C2C(=O)NN=C2c2cnccn2)c(C(C)C)c1CN(C)C` [Example 199, 4-[(Dimethylaminomethyl-3-isopropyl-5-methylpyrrol-2-yl)methylene]-3-pyrazinyl-2-pyrazolin-5-one] displayed a melting point of 227 °C.

In turn, `Cc1[nH]c(C=C2C(=O)NN=C2C2CC2)c(C(C)C)c1CN(C)C` [Example 200, 3-Cyclopropyl-4-[(dimethylaminomethyl-3-isopropyl-5-methylpyrrol-2-yl)methylene]-2-pyrazolin-5-one] yielded a melting point of 190 to 192 °C.

For the molecule `Cc1[nH]c(C=C2C(=O)NN=C2c2cnccn2)c(C)c1CCNC1CC1` [Example 203, 4-{[4-(2-Cyclopropylaminoethyl)-3,5-dimethylpyrrol-2-yl]methylene}-3-pyrazinyl-2-pyrazolin-5-one], the melting point fell in the range of 210 to 218 °C.

Turning to `Cc1[nH]c(C=C2C(=O)NN=C2c2cnccn2)c(C)c1CCNCc1ccncc1` [Example 204, 4-{{3,5-Dimethyl-4-[2-(4-pyridylmethylamino)ethyl]pyrrol-2-yl}methylene}-3-pyrazinyl-2-pyrazolin-5-one], the melting point fell in the range of 203 to 205 °C.

In the case of `CCN(CC)CCc1c(C)[nH]c(C=C2C(=O)NN=C2c2ncccn2)c1C` [Example 206, 4-{[4-(2-Diethylaminoethyl)-3,5-dimethylpyrrol-2-yl]methylene}-3-(2-pyrimidinyl)-2-pyrazolin-5-one], the melting point was in the range of 144 to 146 °C.

For the molecule `CCN(CC)CCc1c(C)[nH]c(C=C2C(=O)NN=C2c2cccnn2)c1C` [Example 207, 4-{[4-(2-Diethylaminoethyl)-3,5-dimethylpyrrol-2-yl]methylene}-3-(3-pyridazinyl)-2-pyrazolin-5-one], the melting point lay in the range of 218 to 220 °C.

As to `CCN(CC)CCc1c(C)[nH]c(C=C2C(=O)NN=C2c2ccncn2)c1C` [Example 208, 4-{[4-(2-Diethylaminoethyl)-3,5-dimethylpyrrol-2-yl]methylene}-3-(4-pyrimidinyl)-2-pyrazolin-5-one], the melting point was determined as 220 °C.

`CCN(CC)CCc1c(C)[nH]c(C=C2C(=O)NN=C2c2ccnnc2)c1C` [Example 209, 4-{[4-(2-Diethylaminoethyl)-3,5-dimethylpyrrol-2-yl]methylene}-3-(4-pyridazinyl)-2-pyrazolin-5-one] had a melting point of 212 to 216 °C.

In turn, `O=C1NN=C(Cc2ccccc2)C1=Cc1c[nH]c2ccccc12` [Example 210, 3-Benzyl-4-[(indol-3-yl)methylene]-2-pyrazolin-5-one] yielded a melting point of 292 to 295 °C.

Molecule `O=C1NN=C(Cc2ccccc2)C1=Cc1cn(CCCCO)c2ccccc12` [Example 211, 3-Benzyl-4-{[1-(4-hydroxybutyl)indol-3-yl]methylene}-2-pyrazolin-5-one] yielded a melting point of 217 to 220 °C.

Consider `COc1ccc(OCC2=NNC(=O)C2=Cc2c[nH]c3ccccc23)cc1` [Example 212, 4-[(Indol-3-yl)methylene]-3-(4-methoxyphenyloxymethyl)-2-pyrazolin-5-one], for which the melting point was 266 to 268 °C.

In turn, `O=C1NN=C(COc2ccccc2)C1=Cc1c[nH]c2ccccc12` [Example 213, 4-[(Indol-3-yl)methylene]-3-phenyloxymethyl-2-pyrazolin-5-one] yielded a melting point of 284 to 286 °C.

`O=C1NN=C(COc2ccc(Cl)cc2)C1=Cc1c[nH]c2ccccc12` [Example 214, 3-(4-Chlorophenyloxymethyl)-4-[(indol-3-yl)methylene]-2-pyrazolin-5-one] showed a melting point of 264 to 267 °C.

Turning to `COc1ccc(CC2=NNC(=O)C2=Cc2c[nH]c3ccccc23)cc1` [Example 215, 4-[(Indol-3-yl)methylene]-3-(4-methoxybenzyl)-2-pyrazolin-5-one], the melting point fell in the range of 265 to 270 °C.

Turning to `Cc1ccc(OCC2=NNC(=O)C2=Cc2c[nH]c3ccccc23)cc1` [Example 216, 4-[(Indol-3-yl)methylene]-3-(4-methylphenyloxymethyl)-2-pyrazolin-5-one], the melting point fell in the range of 288 to 291 °C.

`O=C1NN=C(CCc2ccccc2)C1=Cc1c[nH]c2ccccc12` [Example 217, 4-[(Indol-3-yl)methylene]-3-phenylethyl-2-pyrazolin-5-one] had a melting point of 268 to 270 °C.

`Cc1ccc(CC2=NNC(=O)C2=Cc2c[nH]c3ccccc23)cc1` [Example 219, 4-[(Indol-3-yl)methylene]-3-(4-methylbenzyl)-2-pyrazolin-5-one] came in with a melting point of 280 to 282 °C.

`O=C1NN=C(Nc2ccccc2)C1=Cc1c[nH]c2ccccc12` [Example 220, 4-[(Indol-3-yl)methylene]-3-phenylamino-2-pyrazolin-5-one]: the melting point fell in the range of 265 to 267 °C.

The molecule `Cc1ccc(NC2=NNC(=O)C2=Cc2c[nH]c3ccccc23)cc1` [Example 221, 4-[(Indol-3-yl)methylene]-3-(4-methylphenylamino)-2-pyrazolin-5-one] showed a melting point of 255 to 257 °C.

In the case of `COc1ccc(NC2=NNC(=O)C2=Cc2c[nH]c3ccccc23)cc1` [Example 222, 4-[(Indol-3-yl)methylene]-3-(4-methoxyphenylamino)-2-pyrazolin-5-one], the melting point lay within 265 to 267 °C.

The molecule `O=C1NN=C(Cc2ccc(Cl)cc2)C1=Cc1c[nH]c2ccccc12` [Example 223, 3-(4-Chlorobenzyl)-4-[(indol-3-yl)methylene]-2-pyrazolin-5-one] yielded a melting point of 274 to 277 °C.

On to `COc1ccc(CC2=NNC(=O)C2=Cc2cn(CCCCO)c3ccccc23)cc1` [Example 224, 4-{[1-(4-hydroxybutyl)indol-3-yl]methylene}-3-(4-methoxybenzyl)-2-pyrazolin-5-one], for which the melting point is 204 to 206 °C.

In the case of `O=C1NN=C(Nc2ccc(Cl)cc2)C1=Cc1c[nH]c2ccccc12` [Example 225, 3-(4-Chlorophenylamino)-4-[(indol-3-yl)methylene]-2-pyrazolin-5-one], the melting point was 248 to 250 °C.

Take `COc1cccc(CC2=NNC(=O)C2=Cc2c[nH]c3ccccc23)c1` [Example 226, 4-[(Indol-3-yl)methylene]-3-(3-methoxybenzyl)-2-pyrazolin-5-one]: the melting point was in the range of 288 to 290 °C.

In turn, `COc1ccc(CC2=NNC(=O)C2=Cc2c[nH]c3ccccc23)cc1OC` [Example 227, 3-(3,4-dimethoxybenzyl)-4-[(indol-3-yl)methylene]-2-pyrazolin-5-one] yielded a melting point of 282 to 284 °C.

Molecule `O=C1NN=C(Cc2ccc(O)cc2)C1=Cc1c[nH]c2ccccc12` [Example 228, 3-(4-hydroxybenzyl)-4-[(indol-3-yl)methylene]-2-pyrazolin-5-one] returned a melting point of 295 to 300 °C.

In the case of `O=C1NN=C(COc2cccc(Cl)c2)C1=Cc1c[nH]c2ccccc12` [Example 229, 3-(3-Chlorophenyloxymethyl)-4-[(indol-3-yl)methylene]-2-pyrazolin-5-one], the melting point was 265 to 268 °C.

The values are drawn from US7060822B1, “2-pyrazolin-5-ones” (Abbott GmbH & Co. KG, priority 1999, dated 2006).
